Earlier results in patent US10786601B2, “Composition comprising hyaluronic acid and mepivacaine” (Teoxane, priority 2013, dated 2020).

In the case of `Cc1cccc(C)c1NC(=O)C1CCCCN1C` (racemic) [mepivacaine], the pKa is listed as 7,6.
